Experimental data taken from patent US20040096845A1, “Peritoneal dialysates” (priority 2000, published 2004).
Where two headings read alike, the source gives them in different places.

Columns and labels:
[1] = tested on: Collagen IV; assay: Suppression of methylglyoxal-induced cross linking of collagen IV, by fluorescent intensity; format: biochemical
[2] = Redox potential of cross linking suppressors; format: physicochemical
[3] = tested on: AGE formation in peritoneum tissue; details: rat
[4] = collagen IV + methylglyoxal in phosphate buffer solution, 37° C., 7 days, relative to Control 3 = 100
[5] = Table 3, Control 3 (no suppressor) +282

SMILES	Increase in FI % [1]	Redox potential (mV) [2]	other results
S [Sodium hydrosulfide]	10%	−620 mV	
CNC(=S)NC [Dimethylthiourea]	2%	−40 mV	
O=S([O-])([O-])=S.[Na+].[Na+] [Sodium thiosulfate]	67%	+40 mV	
O=S([O-])S(=O)[O-].[Na+].[Na+] [Sodium hydrosulfite (Na2S2O4), Sodium hydrosulfite]			Increase in FI % [1, 4]: 0%; Redox potential (mV) [2, 5]: −360 mV
O=C(C[n+]1ccsc1)c1ccccc1.[Br-] [N-Phenacyl thiazolium bromide]			AGE formation in peritoneum (in words) ([3]; solution (C), methylglyoxal + additive, 5 days): did not form AGE; AGE formed on peritoneum tissue through first 5 days infusion, after second 5 days infusion (in words) ([3]; solution (D), additive alone for second 5 days): disappeared
O=S([O-])S(=O)(=O)[O-].[Na+].[Na+] [Sodium metabisulfite]			Increase in FI % [1, 4]: 0%; Redox potential (mV) [2, 5]: +17 mV
O=S([O-])O.[Na+] [Sodium bisulfite]	0%	−127 mV	
